The target of the assay is recombinant human NF-kappaB-inducing kinase (NIK/MAP3K14) (Homo sapiens, UniProt Q99558). Briefly: Biological Assay B: inhibition of auto-phosphorylation of recombinant human NIK/MAP3K14 (AlphaScreen), performed at 2 locations. Format: biochemical. As to conditions: averaged values. On the procedure: Inhibition of Auto-Phosphorylation of Recombinant Human NF-kappaB-Inducing Kinase (NIK/MAP3K14) Activity (AlphaScreen®)
NIK/MAP3K14 auto-phosphorylation activity was measured using the AlphaScreen® (αscreen) format (Perkin Elmer). All compounds tested were dissolved in dimethyl sulfoxide (DMSO) and further dilutions were made in assay buffer. Final DMSO concentration was 1% (v/v) in assays. Assay buffer was 50 mM Tris pH 7.5 containing 1 mM EGTA (ethylene glycol tetraacetic acid), 1 mM DTT (dithiothreitol), 0.1 mM Na3VO4, 5 mM MgCl2, 0.01% Tween® 20. Assays were carried out in 384 well Alphaplates (Perkin Elmer). Incubations consisted of compound, 25 microM Adenosine-5′-triphosphate (ATP), and 0.2 nM NIK/MAP3K14. Incubations were initiated by addition of GST-tagged NIK/MAP3K14 enzyme, carried out for 1 h at 25° C. and terminated by addition of stop buffer containing anti-phospho-IKK Ser176/180 antibody. Protein A Acceptor and Glutathione-Donor beads were added before reading using an EnVision® Multilabel Plate Reader (Perkin Elmer). Signal obtained in the wells containing blank samples was subtracted from all other wells and IC50's were determined by fitting a sigmoidal curve to % inhibition of control versus Log10 compound concentration.
Assay B was performed at 2 different locations.
Data for the compounds of the invention in the above assays are provided in Table A (the values in Table are averaged values over all measurements on all batches of a compound; values as IC50 (nM)). (‘n.c.’ means not calculated: ‘Co.’ means compound)
For orientation: Alpha assays give light when donor and acceptor beads are brought close together.

Where [1] appears, read: location 1, AlphaScreen auto-phosphorylation, read-out: Assay B location 1 IC50.
Where [2] appears, read: location 2, AlphaScreen auto-phosphorylation, read-out: Assay B location 2 IC50.
Where [3] appears, read: location 1, NIK auto-phosphorylation, AlphaScreen, read-out: Assay B location 1 IC50.

Drawing on US11236084B2, “Substituted azaindoline derivatives as NIK inhibitors” (Janssen Pharmaceutica NV, priority 2017, dated 2022), this text covers IC50 for 60 molecules.

Each structure is given as a SMILES string. Like-named read-outs stand apart in the source and are kept apart here.

Sequence of recombinant human NF-kappaB-inducing kinase (NIK/MAP3K14) (Q99558 whole entry): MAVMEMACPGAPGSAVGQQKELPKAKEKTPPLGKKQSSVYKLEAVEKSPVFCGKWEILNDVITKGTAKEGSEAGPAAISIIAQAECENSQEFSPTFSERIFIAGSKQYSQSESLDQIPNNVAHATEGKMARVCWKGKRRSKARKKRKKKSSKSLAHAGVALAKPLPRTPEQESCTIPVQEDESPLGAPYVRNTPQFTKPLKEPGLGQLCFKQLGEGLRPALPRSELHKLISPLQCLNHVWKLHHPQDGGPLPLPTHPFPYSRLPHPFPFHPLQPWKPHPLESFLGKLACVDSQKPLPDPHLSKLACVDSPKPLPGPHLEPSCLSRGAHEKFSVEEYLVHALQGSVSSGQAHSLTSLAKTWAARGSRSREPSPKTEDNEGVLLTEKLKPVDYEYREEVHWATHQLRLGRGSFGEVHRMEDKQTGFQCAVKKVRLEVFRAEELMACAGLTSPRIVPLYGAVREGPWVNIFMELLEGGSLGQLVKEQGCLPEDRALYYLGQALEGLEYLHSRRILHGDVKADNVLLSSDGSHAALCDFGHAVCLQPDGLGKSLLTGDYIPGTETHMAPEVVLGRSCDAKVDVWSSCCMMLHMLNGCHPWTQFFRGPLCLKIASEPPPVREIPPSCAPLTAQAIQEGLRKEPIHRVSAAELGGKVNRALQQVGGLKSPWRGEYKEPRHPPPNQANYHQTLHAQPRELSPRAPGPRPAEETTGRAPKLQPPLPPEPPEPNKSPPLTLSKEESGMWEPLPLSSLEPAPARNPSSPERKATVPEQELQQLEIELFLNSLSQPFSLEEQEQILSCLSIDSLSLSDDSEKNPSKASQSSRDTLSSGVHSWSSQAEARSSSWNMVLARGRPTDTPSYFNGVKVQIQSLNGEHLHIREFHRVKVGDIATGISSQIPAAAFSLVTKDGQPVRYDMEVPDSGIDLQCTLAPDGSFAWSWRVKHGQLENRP

As for `COc1cc(N2CC(OC)C2)c(F)cc1Nc1nccc(-c2cnc3c(c2)C(C)(CO)CN3)n1` (single isomer, unassigned) [Compound 298], the IC50 by setting is: under setting [1], 8.1 nM; under setting [2], 2.3 nM.
The matching figures for `COc1cc(N2CCN(C)CC2)c(Cl)cc1Nc1nccc(-c2cnc3c(c2)C(C)(CO)CN3)n1` (single isomer, unassigned) [Compound 303]: 13.8 nM and 4.8 nM.
With `COc1cc(N2CC3(CCOCC3)C2)c(Cl)cc1Nc1ncc(Cl)c(-c2cnc3c(c2)C(C)(CO)CN3)n1` (single isomer, unassigned) [Compound 348], under setting [3], the IC50 was determined as 14.8 nM.
The same measure, in the same setting: next, `COc1cc(C(=O)NC2CCOCC2)ccc1Nc1ncc(Cl)c(-c2cnc3c(c2)C(C)(CO)CN3)n1` (single isomer, unassigned) [Compound 351]: 24 nM.
Same read-out and setting: next, `COc1cc(C(=O)NC2CCOCC2)ccc1Nc1ncc(F)c(-c2cnc3c(c2)C(C)(CO)CN3)n1` (single isomer, unassigned) [Compound 352]: 33.9 nM.
As to `COc1cc(N2CC3(CCOCC3)C2)c(Cl)cc1Nc1nccc(-c2cnc3c(c2)C(C)(CO)CN3)n1` (stereo not shown) [Compound 3], the IC50 runs as follows: under setting [1], 10 nM; under setting [2], 2.2 nM.
Consider `COCCN(C)c1cc(OC)c(Nc2nccc(-c3cnc4c(c3)C(C)(CO)CN4)n2)cc1Cl` (stereo not shown) [Compound 5], for which the IC50 runs as follows: under setting [1], 6.3 nM; under setting [2], 4.1 nM.
The matching figures for `COc1cc(N2CCOCC2)c(Cl)cc1Nc1nccc(-c2cnc3c(c2)C(C)(CO)CN3)n1` (stereo not shown) [Compound 6]: 4.7 nM and 4 nM.
The matching figures for `COc1cc(N2CC3(CCOCC3)C2)c(F)cc1Nc1nccc(-c2cnc3c(c2)C(C)(CO)CN3)n1` (stereo not shown) [Compound 7]: 15.5 nM and 2.6 nM.
The like results for `COc1cc(C(=O)N2CCC(OC)CC2)c(Cl)cc1Nc1nccc(-c2cnc3c(c2)C(C)(C)CN3)n1` [Compound 9] were, in that order, 5.3 nM and 1.8 nM.
For `COc1cc(N)c(Cl)cc1Nc1nccc(-c2cnc3c(c2)C(C)(CO)CN3)n1` (stereo not shown) [Compound 11], the IC50 turned out to be 6.2 nM under setting [1] and 0.7 nM under setting [2].
As for `CC1(C)CNc2ncc(-c3ccnc(Nc4ccc(C(=O)NC5CNC5)cc4)n3)cc21` [Compound 34], the IC50 under setting [2] worked out at 1.6 nM.
As to `CNC(=O)c1ccc(Nc2nccc(-c3cnc4c(c3)C(C)(CO)CN4)n2)c(OC)c1` (stereo not shown) [Compound 152], under setting [2], the IC50 came to 11.2 nM.
Same read-out and setting: next, `CCC1(CC#N)CNc2ncc(-c3ccnc(Nc4ccc(C(=O)NC5CCOCC5)cc4OC)n3)cc21` (stereo not shown) [Compound 154]: 19.1 nM; `CCC1(CC#N)CNc2ncc(-c3ccnc(Nc4ccc(C(=O)N5CCC(OC)CC5)cc4OC)n3)cc21` (stereo not shown) [Compound 155]: 38 nM; `CCC1(CCO)CNc2ncc(-c3ccnc(Nc4ccc(C(=O)NC5CCOCC5)cc4OC)n3)cc21` (stereo not shown) [Compound 158]: 15.1 nM.
Same read-out and setting: next, `CCC1(CCO)CNc2ncc(-c3ccnc(Nc4ccc(C(=O)N5CCC(OC)CC5)cc4OC)n3)cc21` (stereo not shown) [Compound 159]: 12.6 nM; `COc1cc(C(=O)NC(C)(C)CO)ccc1Nc1nccc(-c2cnc3c(c2)C(C)(CO)CN3)n1` (stereo not shown) [Compound 160]: 18.6 nM.
Still for that read-out and setting: the result for `COc1cc(-c2ncc[nH]2)ccc1Nc1nccc(-c2cnc3c(c2)C(C)(CO)CN3)n1` (stereo not shown) [Compound 163] reads 12 nM.
In the case of `COc1ccc(Nc2nccc(-c3cnc4c(c3)C(C)(CO)CN4)n2)c(OC)c1` (stereo not shown) [Compound 164], the IC50 under setting [2] came to 5.6 nM.
On the same count and under the same terms, the result for `COc1cc(CN2CCOCC2)ccc1Nc1nccc(-c2cnc3c(c2)C(C)(CO)CN3)n1` (stereo not shown) [Compound 165] reads 23.4 nM.
Turning to `COCc1ccc(Nc2nccc(-c3cnc4c(c3)C(C)(CO)CN4)n2)c(OC)c1` (stereo not shown) [Compound 166], the IC50 under setting [2] was determined as 18.2 nM.
`CCc1ccccc1Nc1nccc(-c2cnc3c(c2)C(C)(CO)CN3)n1` (stereo not shown) [Compound 167]: the IC50 under setting [2] came out at 19.1 nM.
Same read-out and setting: the result for `COc1cccc(Nc2nccc(-c3cnc4c(c3)C(C)(CO)CN4)n2)c1` (stereo not shown) [Compound 168] reads 3.6 nM; that for `COc1cc(-c2cnn(C)c2)ccc1Nc1nccc(-c2cnc3c(c2)C(C)(CO)CN3)n1` (stereo not shown) [Compound 169], 8.9 nM.
As for `COc1cc(-c2cncn2C)ccc1Nc1nccc(-c2cnc3c(c2)C(C)(CO)CN3)n1` (stereo not shown) [Compound 170], the IC50 runs as follows: under setting [1], 45.7 nM; under setting [2], 27.6 nM.
Regarding `COc1cc(N2CCOCC2)ccc1Nc1nccc(-c2cnc3c(c2)C(C)(CO)CN3)n1` (stereo not shown) [Compound 171], under setting [2], the IC50 was determined as 12.3 nM.
With `COc1cc(Cl)ccc1Nc1nccc(-c2cnc3c(c2)C(C)(CO)CN3)n1` (stereo not shown) [Compound 172], the IC50 runs as follows: under setting [1], 75.9 nM; under setting [2], 71.6 nM.
As for `COc1ccc(C(F)(F)F)cc1Nc1nccc(-c2cnc3c(c2)C(C)(CO)CN3)n1` (stereo not shown) [Compound 173], the IC50 under setting [2] turned out to be 10 nM.
Still for that read-out and setting: next, `CCOc1ccccc1Nc1nccc(-c2cnc3c(c2)C(C)(CO)CN3)n1` (stereo not shown) [Compound 174]: 32.4 nM; `CC(C)Oc1ccccc1Nc1nccc(-c2cnc3c(c2)C(C)(CO)CN3)n1` (stereo not shown) [Compound 175]: 33.9 nM; `CC1(CO)CNc2ncc(-c3ccnc(Nc4ccccc4Br)n3)cc21` (stereo not shown) [Compound 176]: 12.6 nM.
Still for that read-out and setting: the result for `CC1(CO)CNc2ncc(-c3ccnc(Nc4ccccc4F)n3)cc21` (stereo not shown) [Compound 177] reads 32.4 nM; that for `CC1(CO)CNc2ncc(-c3ccnc(Nc4ccccc4Cl)n3)cc21` (stereo not shown) [Compound 178], 14.1 nM.
In the case of `Cc1ccccc1Nc1nccc(-c2cnc3c(c2)C(C)(CO)CN3)n1` (stereo not shown) [Compound 179], under setting [2], the IC50 turned out to be 22.4 nM.
Still for that read-out and setting: the result for `CC1(CO)CNc2ncc(-c3ccnc(Nc4ccccc4C(F)(F)F)n3)cc21` (stereo not shown) [Compound 180] reads 204 nM; that for `COc1ccc(Br)cc1Nc1nccc(-c2cnc3c(c2)C(C)(CO)CN3)n1` (stereo not shown) [Compound 181], 2.2 nM.
For `COc1ccc(F)cc1Nc1nccc(-c2cnc3c(c2)C(C)(CO)CN3)n1` (stereo not shown) [Compound 182], under setting [2], the IC50 stood at 3 nM.
For the molecule `COc1ccc(Cl)cc1Nc1nccc(-c2cnc3c(c2)C(C)(CO)CN3)n1` (stereo not shown) [Compound 183], the IC50 under setting [2] stood at 1.4 nM.
Still for that read-out and setting: next, `COc1ccc(C)cc1Nc1nccc(-c2cnc3c(c2)C(C)(CO)CN3)n1` (stereo not shown) [Compound 184]: 3.4 nM.
`COc1cc(CCO)ccc1Nc1nccc(-c2cnc3c(c2)C(C)(CO)CN3)n1` (stereo not shown) [Compound 185]: the IC50 under setting [2] is 3.8 nM.
As for `COc1cc(CN(C)C)ccc1Nc1nccc(-c2cnc3c(c2)C(C)(CO)CN3)n1` (stereo not shown) [Compound 186], the IC50 under setting [2] worked out at 40.7 nM.
On the same count and under the same terms, next, `COc1cc(N2CCN(C)CC2)ccc1Nc1nccc(-c2cnc3c(c2)C(C)(CO)CN3)n1` (stereo not shown) [Compound 187]: 18.2 nM; `COc1cc(Nc2nccc(-c3cnc4c(c3)C(C)(CO)CN4)n2)ccc1-c1cnn(C)c1` (stereo not shown) [Compound 188]: 5.5 nM; `COc1cc(Cn2cccn2)ccc1Nc1nccc(-c2cnc3c(c2)C(C)(CO)CN3)n1` (stereo not shown) [Compound 189]: 6.9 nM.
The same measure, in the same setting: next, `COc1ccc(C#N)cc1Nc1nccc(-c2cnc3c(c2)C(C)(CO)CN3)n1` (stereo not shown) [Compound 190]: 2.2 nM; `COc1cc(-n2cccn2)ccc1Nc1nccc(-c2cnc3c(c2)C(C)(CO)CN3)n1` (stereo not shown) [Compound 191]: approximately 27 nM.
As to `COc1cc(-c2ccn(C)n2)ccc1Nc1nccc(-c2cnc3c(c2)C(C)(CO)CN3)n1` (stereo not shown) [Compound 192], the IC50 under setting [2] is 26.9 nM.
Same read-out and setting: next, `COc1cc(Nc2nccc(-c3cnc4c(c3)C(C)(CO)CN4)n2)cc(C(F)(F)F)c1` (stereo not shown) [Compound 193]: 22.9 nM.
Take `COc1cc(CCN2CCOCC2)ccc1Nc1nccc(-c2cnc3c(c2)C(C)(CO)CN3)n1` (stereo not shown) [Compound 194]: under setting [2], the IC50 turned out to be 21.9 nM.
Still for that read-out and setting: next, `COc1ccc(C2CC2)cc1Nc1nccc(-c2cnc3c(c2)C(C)(CO)CN3)n1` (stereo not shown) [Compound 195]: 49 nM; `CC1(CO)CNc2ncc(-c3ccnc(Nc4cc(Cl)ccc4Cl)n3)cc21` (stereo not shown) [Compound 196]: 4 nM; `CC1(CO)CNc2ncc(-c3ccnc(Nc4cc(F)ccc4Cl)n3)cc21` (stereo not shown) [Compound 197]: 11.2 nM.
Consider `Cc1ccc(F)cc1Nc1nccc(-c2cnc3c(c2)C(C)(CO)CN3)n1` (stereo not shown) [Compound 198], for which, under setting [2], the IC50 was 8.5 nM.
Still for that read-out and setting: next, `Cc1ccc(Cl)cc1Nc1nccc(-c2cnc3c(c2)C(C)(CO)CN3)n1` (stereo not shown) [Compound 199]: 4.5 nM; `COc1cc(C2COCCN2C)ccc1Nc1nccc(-c2cnc3c(c2)C(C)(CO)CN3)n1` (stereo not shown) [Compound 200]: 132 nM; `COc1cc(-n2cnc(C)c2)ccc1Nc1nccc(-c2cnc3c(c2)C(C)(CO)CN3)n1` (stereo not shown) [Compound 202]: 26.9 nM.
The same measure, in the same setting: the result for `COc1cc(-c2ccnn2C)ccc1Nc1nccc(-c2cnc3c(c2)C(C)(CO)CN3)n1` (stereo not shown) [Compound 203] reads 30.9 nM; that for `COc1ccc(CO)cc1Nc1nccc(-c2cnc3c(c2)C(C)(CO)CN3)n1` (stereo not shown) [Compound 204], 10.7 nM.
Same read-out and setting: the result for `CC1(CO)CNc2ncc(-c3ccnc(Nc4cc(C#N)ccc4Cl)n3)cc21` (stereo not shown) [Compound 205] reads 5.1 nM.

Usually IC50 stands for the point on the concentration scale where inhibition reaches its midpoint.
